This is an account of results in US20130158132A1, “Formulation Solution Adapted To Prolong Plasma Times Of Drugs In Mammals Including Humans” (priority 2011, published 2013).

For series [1] the following is noted: single 2.0 gram dose, cited from earlier work.
The nature of a further series: in vivo. As to conditions: rat, Quinine serum level.
The conditions of series [2]: rat, in vivo, 24 h.
The conditions of series [3]: after 24 hours; cited from earlier work.
Series [4] can be described thus: Decoquinate concentration in mouse plasma and liver, with and without prolongation solution. To be noted: mice; for concentration of the drug in liver / concentration of the drug in plasma: 0.5 ml injected. More on the design: concentration of the drug in plasma / concentration of the drug in liver: unit not given here. The format is in vivo. The procedure: (§1) The following examples used laboratory rats and mice.
Decoquinate solution was mixed with two solutions: one with the prolongation solution of Example 1 and one without the prolongation solution. Each solution contained an identical and normal dosage of the drug. In both cases, 0.5 ml of solution was injected into mice of approximately identical weight. The concentration of the drug in plasma and liver was chected by high performance then layer chromatography in mouse liver and plasma.

Series [5] in a line: Glipizide serum level in rats after one-time administration. In kind it is in vivo. To be noted: rat, other: injected, about 0.25 mg in 3 ml prolongation solution of Example 1, injected. As to the method:
as §1
Serum testing was conducted after one-time initial administration.

The conditions of series [6]: single 5 mg dose; cited from earlier work.
Series [7] is described as follows: Rifampicin serum level in rats after one-time administration. The format is in vivo. As to conditions: for concentration at 14 h / concentration at 32 h: serum. The procedure:
as §1
Serum testing was conducted after one-time initial administration to rats. The Rifampicin level remained:
Control test using water alone on 8 mg/rat. […] Thus, the prolongation solution is effective at reduced drug administration levels.

The conditions of series [8]: human, single 600 mg dose; cited from earlier work.
Setting [9] is: NE-No Prolongation Solution, 0.5 hours.
[10] abbreviates: NE-No Prolongation Solution, 1 hour.
The mark [11] stands for this setting: NE-No Prolongation Solution, 2 hours.
Setting [12] is: NE-No Prolongation Solution, 4 hours.
Where [13] appears, read: NE-No Prolongation Solution, 8 hours.
Where [14] appears, read: NE-No Prolongation Solution, 24 hours.
Setting [15] is: PF-Prolongation Solution of Example 1, 0.5 hours.
Where [16] appears, read: PF-Prolongation Solution of Example 1, 1 hour.
Setting [17] is: PF-Prolongation Solution of Example 1, 2 hours.
Where [18] appears, read: PF-Prolongation Solution of Example 1, 4 hours.
Where [19] appears, read: PF-Prolongation Solution of Example 1, 8 hours.
Where [20] appears, read: PF-Prolongation Solution of Example 1, 24 hours.
Where [21] appears, read: rat, about 18 mg in 3 ml prolongation solution of Example 1, one-time administration.
Where [22] appears, read: about 8 mg/rat with prolongation solution.

Take `Cc1noc(NS(=O)(=O)c2ccc(N)cc2)c1C` [sulfisoxazole]: in [1], the “mean time of peak plasma concentration” value was 2.5 h. Further, in series [1] (within 48 hours), the “original dose excreted in the urine” value is listed as “About 97%”.
Turning to `C=C[C@H]1C[N@@]2CC[C@H]1C[C@H]2[C@H](O)c1ccnc2ccc(OC)cc12` [Quinine], in the series “in vivo”, the concentration at 45 min came to 4600 ng/mL, the concentration at 4 h is 3000 ng/mL, the concentration at 9 h was 1800 ng/mL and the concentration at 13 h amounted to 1600 ng/mL. Besides, in the series “in vivo”, the concentration at 15 h came out at 2100 ng/mL, the concentration at 16 h was found to be 230 ng/mL and the concentration at 24 h came to 1400 ng/mL. Further, in series [2], the Quinine serum level is 2400 ng/mL. Also, the “plasma level after termination of quinine therapy” value in series [3] was “barely detectable”.
On to `CCCCCCCCCCOc1cc2c(O)c(C(=O)OCC)cnc2cc1OCC` [Decoquinate], for which the “concentration of the drug in liver” value in [4] (setting [9]) amounted to 313860; in series [4] (setting [10]), 430820; in series [4] (setting [11]), 317950; in series [4] (setting [12]) it was 323180; in series [4] (setting [13]) it was 177470; in series [4] (setting [14]), 7014. Also, the “concentration of the drug in liver” value in series [4] (setting [15]) was 149675; in [4] (setting [16]) it was 223565; in series [4] (setting [17]), 191725; in series [4] (setting [18]), 219615; in [4] (setting [19]), 181015; in series [4] (setting [20]), 5549. Also, the “concentration of the drug in plasma” value in series [4] (setting [9]) is given as 25565; in series [4] (setting [10]), 49911; in series [4] (setting [11]), 43941; in series [4] (setting [12]), 35427; in [4] (setting [13]), 25131; in series [4] (setting [14]), 697. In addition, the “concentration of the drug in plasma” value in series [4] (setting [15]) came out at 15213; in series [4] (setting [16]) it was 24638; in series [4] (setting [17]), 27350; in series [4] (setting [18]) it was 29213; in series [4] (setting [19]), 27882; in series [4] (setting [20]), 457. The “drop of Decoquinate level between 1 and 8 hours in plasma” value in [4] (no prolongation solution) came out at 50%. The “drop of Decoquinate level between 1 and 8 hours in liver” value in series [4] (no prolongation solution, compared with the 50% drop in plasma) is listed as “almost as much”. Further, in [4] (prolongation solution used), the “change in the level of Decoquinate between 1 and 8 hours” value is listed as “relatively little change”. In [4] (using the prolongation solution, compared to control), the “change of concentration of drug in plasma and liver for eight hours” value is on record as “did not change”.
For `Cc1cnc(C(=O)NCCc2ccc(S(=O)(=O)NC(=O)NC3CCCCC3)cc2)cn1` [Glipizide], the concentration at 26 h in series [5] (26 hours) was 570 ng/mL. The concentration at 52 h in [5] (52 hours) was found to be 1400 ng/mL. Also, in series [6], the “Peak serum level of glipizide” value is 0.1 to 0.5 µg/mL and the “time of peak serum level post dose” value was 1.6 h.
Take `CO[C@H]1/C=C/O[C@@]2(C)Oc3c(C)c(O)c4c(O)c(c(/C=N/N5CCN(C)CC5)c(O)c4c3C2=O)NC(=O)/C(C)=C\C=C\[C@H](C)[C@H](O)[C@@H](C)[C@@H](O)[C@@H](C)[C@H](OC(C)=O)[C@@H]1C` [Rifampicin]: the Rifampicin serum level result in series [7] (control using water alone, 8 mg/rat, after 14 hours) is given as “not being detected”. In addition, in series [7] (setting [21]), the concentration at 14 h came to 19000 ng/mL and the concentration at 32 h is 3500 ng/mL. In series [7] (setting [22]), this compound yielded a concentration at 14 h of 14000 ng/mL and a concentration at 32 h of 8500 ng/mL. For the same compound, in series [8], the “Peak plasma levels of Rifampicin” value is 3 to 13 µg/mL and the “time of peak plasma level post dose” value is “approximately 1.8 hours”.
